Where a SMILES comes first, the peptide text is derived from it. Bridges are numbered along the chain shown (N, C = ends). [ ]: non-standard residue; d: D form. 2Nal = N[C@@H](Cc1ccc2ccccc2c1)C(=O)O; Cit = NC(=O)NCCC[C@H](N)C(=O)O
Test: Inhibition of HIV-induced cytopathogenicity in MT-4 cell

Going from C[C@@H]1NC(=O)[C@H](CCCN=C(N)N)NC(=O)[C@H](Cc2ccc(O)cc2)NC(=O)[C@@H]2CCCN2C(=O)[C@@H](CCCCN)NC(=O)[C@H](CCCCN)NC(=O)[C@H](CCCN=C(N)N)NC(=O)[C@H](Cc2ccc(O)cc2)NC(=O)[C@@H](NC(=O)[C@H](Cc2ccc3ccccc3c2)NC(=O)[C@H](CCCN=C(N)N)NC(=O)[C@@H](N)CCCN=C(N)N)CSSC[C@@H](C(=O)N[C@@H](CCCN=C(N)N)C(=O)O)NC1=O to C[C@@H]1NC(=O)[C@H](CCCN=C(N)N)NC(=O)[C@H](Cc2ccc(O)cc2)NC(=O)[C@@H](NC(=O)[C@H](Cc2ccc3ccccc3c2)NC(=O)[C@H](CCCN=C(N)N)NC(=O)[C@@H](N)CCCN=C(N)N)CSSC[C@@H](C(=O)N[C@@H](CCCN=C(N)N)C(=O)O)NC(=O)[C@H](CCCNC(N)=O)NC(=O)[C@H](CCCN=C(N)N)NC(=O)[C@H](Cc2ccc(O)cc2)NC(=O)[C@@H]2CCCN2C(=O)[C@@H](CCCCN)NC1=O, the EC50 rises from 16 nM to 47 nM (2.9-fold). The first is the more potent here.

Compared with C[C@H](NC(=O)[C@H](CCCN=C(N)N)NC(=O)[C@@H](N)CCCN=C(N)N)C(=O)N[C@H]1CSSC[C@@H](C(=O)N[C@@H](CCCN=C(N)N)C(=O)O)NC(=O)[C@H](CCCNC(N)=O)NC(=O)[C@H](CCCN=C(N)N)NC(=O)[C@H](Cc2ccc(O)cc2)NC(=O)[C@@H]2CCCN2C(=O)[C@@H](CCCCN)NC(=O)[C@H](CCCCN)NC(=O)[C@H](CCCN=C(N)N)NC(=O)[C@H](Cc2ccc(O)cc2)NC1=O, NCCCC[C@@H]1NC(=O)[C@H](CCCN=C(N)N)NC(=O)[C@H](Cc2ccc(O)cc2)NC(=O)[C@@H](NC(=O)[C@H](Cc2c[nH]c3ccccc23)NC(=O)[C@H](CCCN=C(N)N)NC(=O)[C@@H](N)CCCN=C(N)N)CSSC[C@@H](C(=O)N[C@@H](CCCN=C(N)N)C(=O)O)NC(=O)[C@H](CCCNC(N)=O)NC(=O)[C@H](CCCN=C(N)N)NC(=O)[C@H](Cc2ccc(O)cc2)NC(=O)[C@@H]2CCCN2C(=O)[C@@H](CCCCN)NC1=O is 300-fold lower in EC50: 2500 nM for the first, 8.3 nM for the second.

First: CC(N)C(=O)N[C@@H](CCCN=C(N)N)C(=O)N[C@@H](Cc1ccc2ccccc2c1)C(=O)N[C@H]1CSSC[C@@H](C(=O)N[C@@H](CCCN=C(N)N)C(=O)O)NC(=O)[C@H](CCCNC(N)=O)NC(=O)[C@H](CCCN=C(N)N)NC(=O)[C@H](Cc2ccc(O)cc2)NC(=O)[C@@H]2CCCN2C(=O)[C@@H](CCCCN)NC(=O)[C@H](CCCCN)NC(=O)[C@H](CCCN=C(N)N)NC(=O)[C@H](Cc2ccc(O)cc2)NC1=O (stereo partly specified)
Second: C[C@H](NC(=O)[C@@H]1CSSC[C@H](NC(=O)[C@H](Cc2ccc3ccccc3c2)NC(=O)[C@H](CCCN=C(N)N)NC(=O)[C@@H](N)CCCN=C(N)N)C(=O)N[C@@H](Cc2ccc(O)cc2)C(=O)N[C@@H](CCCN=C(N)N)C(=O)N[C@@H](CCCCN)C(=O)N[C@H](CCCCN)C(=O)N2CCC[C@H]2C(=O)N[C@@H](Cc2ccc(O)cc2)C(=O)N[C@@H](CCCN=C(N)N)C(=O)N[C@@H](CCCNC(N)=O)C(=O)N1)C(=O)O
The EC50 of the first is 7.1-fold lower: 56 nM for the first, 400 nM for the second.

Going from C[C@@H]1NC(=O)[C@@H](NC(=O)[C@H](Cc2ccc3ccccc3c2)NC(=O)[C@H](CCCN=C(N)N)NC(=O)[C@@H](N)CCCN=C(N)N)CSSC[C@@H](C(=O)N[C@@H](CCCN=C(N)N)C(=O)O)NC(=O)[C@H](CCCNC(N)=O)NC(=O)[C@H](CCCN=C(N)N)NC(=O)[C@H](Cc2ccc(O)cc2)NC(=O)[C@@H]2CCCN2C(=O)[C@@H](CCCCN)NC(=O)[C@H](CCCCN)NC(=O)[C@H](CCCN=C(N)N)NC1=O [TC-14005] to C[C@@H]1NC(=O)[C@@H]2CCCN2C(=O)[C@@H](CCCCN)NC(=O)[C@H](CCCCN)NC(=O)[C@H](CCCN=C(N)N)NC(=O)[C@H](Cc2ccc(O)cc2)NC(=O)[C@@H](NC(=O)[C@H](Cc2ccc3ccccc3c2)NC(=O)[C@H](CCCN=C(N)N)NC(=O)[C@@H](N)CCCN=C(N)N)CSSC[C@@H](C(=O)N[C@@H](CCCN=C(N)N)C(=O)O)NC(=O)[C@H](CCCNC(N)=O)NC(=O)[C@H](CCCN=C(N)N)NC1=O, the EC50 falls from 360 nM to 17 nM (21-fold). The second is the more potent here.

Compared with NCCCC[C@@H]1NC(=O)[C@H](CCCN=C(N)N)NC(=O)[C@H](Cc2ccc(O)cc2)NC(=O)[C@@H](NC(=O)[C@H](Cc2ccc3ccccc3c2)NC(=O)[C@H](CCCN=C(N)N)NC(=O)[C@@H](N)CCCN=C(N)N)CSSC[C@@H](C(=O)N[C@@H](CCCN=C(N)N)C(=O)O)NC(=O)[C@H](CCCNC(N)=O)NC(=O)[C@H](CCCNC(N)=O)NC(=O)[C@H](Cc2ccc(O)cc2)NC(=O)[C@@H]2CCCN2C(=O)[C@@H](CCCCN)NC1=O [TC-14003], NCCCC[C@@H]1NC(=O)[C@H](CCCNC(N)=O)NC(=O)[C@H](Cc2ccc(O)cc2)NC(=O)[C@@H](NC(=O)[C@H](Cc2ccc3ccccc3c2)NC(=O)[C@H](CCCN=C(N)N)NC(=O)[C@@H](N)CCCN=C(N)N)CSSC[C@@H](C(=O)N[C@@H](CCCN=C(N)N)C(=O)O)NC(=O)[C@H](CCCNC(N)=O)NC(=O)[C@H](CCCN=C(N)N)NC(=O)[C@H](Cc2ccc(O)cc2)NC(=O)[C@@H]2CCCN2C(=O)[C@@H](CCCCN)NC1=O is 5.4-fold lower in EC50: 15 nM for the first, 2.8 nM for the second.

Going from C[C@@H]1NC(=O)[C@H](Cc2ccc(O)cc2)NC(=O)[C@@H]2CCCN2C(=O)[C@@H](CCCCN)NC(=O)[C@H](CCCCN)NC(=O)[C@H](CCCN=C(N)N)NC(=O)[C@H](Cc2ccc(O)cc2)NC(=O)[C@@H](NC(=O)[C@H](Cc2ccc3ccccc3c2)NC(=O)[C@H](CCCN=C(N)N)NC(=O)[C@@H](N)CCCN=C(N)N)CSSC[C@@H](C(=O)N[C@@H](CCCN=C(N)N)C(=O)O)NC(=O)[C@H](CCCNC(N)=O)NC1=O [TC-14007] to C[C@@H]1NC(=O)[C@H](Cc2ccc(O)cc2)NC(=O)[C@@H](NC(=O)[C@H](Cc2ccc3ccccc3c2)NC(=O)[C@H](CCCN=C(N)N)NC(=O)[C@@H](N)CCCN=C(N)N)CSSC[C@@H](C(=O)N[C@@H](CCCN=C(N)N)C(=O)O)NC(=O)[C@H](CCCNC(N)=O)NC(=O)[C@H](CCCN=C(N)N)NC(=O)[C@H](Cc2ccc(O)cc2)NC(=O)[C@@H]2CCCN2C(=O)[C@@H](CCCCN)NC(=O)[C@H](CCCCN)NC1=O [TC-14002], the EC50 falls from 18 nM to 9.3 nM (1.9-fold).

First: NCCCC[C@H]1NC(=O)[C@H](CCCNC(N)=O)NC(=O)[C@H](CCCN=C(N)N)NC(=O)[C@H](Cc2ccc(O)cc2)NC(=O)[C@@H](NC(=O)[C@H](Cc2ccc3ccccc3c2)NC(=O)[C@H](CCCN=C(N)N)NC(=O)[C@@H](N)CCCN=C(N)N)CSSC[C@@H](C(=O)N[C@@H](CCCN=C(N)N)C(=O)O)NC(=O)[C@H](CCCNC(N)=O)NC(=O)[C@H](CCCN=C(N)N)NC(=O)[C@H](Cc2ccc(O)cc2)NC(=O)[C@@H]2CCCN2C1=O
Second: NCCCC[C@@H]1NC(=O)[C@H](CCCN=C(N)N)NC(=O)[C@H](Cc2ccc(O)cc2)NC(=O)[C@@H](NC(=O)[C@H](Cc2ccc3ccccc3c2)NC(=O)[C@H](CCCN=C(N)N)NC(=O)[C@@H](N)CCCN=C(N)N)CSSC[C@@H](C(=O)N[C@@H](CCCN=C(N)N)C(=O)O)NC(=O)[C@H](CCCNC(N)=O)NC(=O)[C@H](CCCN=C(N)N)NC(=O)[C@H](Cc2ccc(O)cc2)NC(=O)[C@@H]2CCCN2C(=O)[C@@H](CCCNC(N)=O)NC1=O [TC-14004]
The EC50 of the first is 4-fold higher: 16 nM for the first, 4 nM for the second. The second is the more potent here.

Compared with C[C@@H]1NC(=O)[C@@H](CCCCN)NC(=O)[C@H](CCCCN)NC(=O)[C@H](CCCN=C(N)N)NC(=O)[C@H](Cc2ccc(O)cc2)NC(=O)[C@@H](NC(=O)[C@H](Cc2ccc3ccccc3c2)NC(=O)[C@H](CCCN=C(N)N)NC(=O)[C@@H](N)CCCN=C(N)N)CSSC[C@@H](C(=O)N[C@@H](CCCN=C(N)N)C(=O)O)NC(=O)[C@H](CCCNC(N)=O)NC(=O)[C@H](CCCN=C(N)N)NC(=O)[C@H](Cc2ccc(O)cc2)NC1=O (H-RR[2Nal]CYRK[dK]AYR[Cit]CR-OH; disulfide 4-13), NCCCC[C@@H]1NC(=O)[C@H](CCCN=C(N)N)NC(=O)[C@H](Cc2ccc(O)cc2)NC(=O)[C@@H](NC(=O)[C@H](Cc2ccc3ccccc3c2)NC(=O)[C@H](CCCN=C(N)N)NC(=O)[C@@H](N)CCCN=C(N)N)CSSC[C@@H](C(=O)N[C@@H](CCCN=C(N)N)C(=O)O)NC(=O)[C@H](CCCNC(N)=O)NC(=O)[C@H](CCCN=C(N)N)NC(=O)[C@H](Cc2ccc(O)cc2)NC(=O)[C@@H]2CCCN2C(=O)[C@@H](CCCCN)NC1=O (H-RR[2Nal]CYRK[dK]PYR[Cit]CR-OH; disulfide 4-13) is 5.2-fold lower in EC50: 17 nM for the first, 3.3 nM for the second.

First: NCCCC[C@@H]1NC(=O)[C@H](CCCN=C(N)N)NC(=O)[C@H](Cc2ccc(O)cc2)NC(=O)[C@@H](NC(=O)[C@H](Cc2ccc3ccccc3c2)NC(=O)[C@H](CCCN=C(N)N)NC(=O)[C@@H](N)CCCNC(N)=O)CSSC[C@@H](C(=O)N[C@@H](CCCN=C(N)N)C(=O)O)NC(=O)[C@H](CCCNC(N)=O)NC(=O)[C@H](CCCN=C(N)N)NC(=O)[C@H](Cc2ccc(O)cc2)NC(=O)[C@@H]2CCCN2C(=O)[C@@H](CCCCN)NC1=O
Second: NCCCC[C@@H]1NC(=O)[C@H](CCCN=C(N)N)NC(=O)[C@H](Cc2ccc(O)cc2)NC(=O)[C@@H](NC(=O)[C@H](Cc2ccc3ccccc3c2)NC(=O)[C@H](CCCNC(N)=O)NC(=O)[C@@H](N)CCCN=C(N)N)CSSC[C@@H](C(=O)N[C@@H](CCCN=C(N)N)C(=O)O)NC(=O)[C@H](CCCNC(N)=O)NC(=O)[C@H](CCCN=C(N)N)NC(=O)[C@H](Cc2ccc(O)cc2)NC(=O)[C@@H]2CCCN2C(=O)[C@@H](CCCCN)NC1=O
The EC50 of the first is 30-fold lower: 15 nM for the first, 450 nM for the second. The first is the more potent here.

Going from C[C@H]1NC(=O)[C@H](CCCCN)NC(=O)[C@H](CCCN=C(N)N)NC(=O)[C@H](Cc2ccc(O)cc2)NC(=O)[C@@H](NC(=O)[C@H](Cc2ccc3ccccc3c2)NC(=O)[C@H](CCCN=C(N)N)NC(=O)[C@@H](N)CCCN=C(N)N)CSSC[C@@H](C(=O)N[C@@H](CCCN=C(N)N)C(=O)O)NC(=O)[C@H](CCCNC(N)=O)NC(=O)[C@H](CCCN=C(N)N)NC(=O)[C@H](Cc2ccc(O)cc2)NC(=O)[C@@H]2CCCN2C1=O to C[C@H](NC(=O)[C@@H](N)CCCN=C(N)N)C(=O)N[C@@H](Cc1ccc2ccccc2c1)C(=O)N[C@H]1CSSC[C@@H](C(=O)N[C@@H](CCCN=C(N)N)C(=O)O)NC(=O)[C@H](CCCNC(N)=O)NC(=O)[C@H](CCCN=C(N)N)NC(=O)[C@H](Cc2ccc(O)cc2)NC(=O)[C@@H]2CCCN2C(=O)[C@@H](CCCCN)NC(=O)[C@H](CCCCN)NC(=O)[C@H](CCCN=C(N)N)NC(=O)[C@H](Cc2ccc(O)cc2)NC1=O [TC-14001], the EC50 rises from 16 nM to 1300 nM (81-fold). The first is the more potent here.

For NCCCC[C@@H]1NC(=O)[C@H](CCCN=C(N)N)NC(=O)[C@H](Cc2ccc(O)cc2)NC(=O)[C@@H](NC(=O)[C@H](Cc2ccc3ccccc3c2)NC(=O)[C@H](CCCN=C(N)N)NC(=O)[C@@H](N)CCCN=C(N)N)CSSC[C@@H](C(=O)N[C@@H](CCCNC(N)=O)C(=O)O)NC(=O)[C@H](CCCNC(N)=O)NC(=O)[C@H](CCCN=C(N)N)NC(=O)[C@H](Cc2ccc(O)cc2)NC(=O)[C@@H]2CCCN2C(=O)[C@@H](CCCCN)NC1=O [TC-14006], the EC50 was 880 nM.

Source: BindingDB's records for doi:10.1016/s0960-894x(00)00535-7 (Kyoto University, 2000)
